The target in one test is CB1 (Rattus norvegicus, UniProt P20272). The experiment in a line: CB1 receptor binding affinity (Ki). The procedure:
Some disclosed compounds were tested for CB1 and CB2 receptor binding affinity (Tables 1, 2, 3, 4, 5, 6). As used herein “binding affinity” is represented by the Ki value. The Ki value is the affinity constant and describes the affinity of the compound for the receptor. […] A detailed description of the methods used to test “binding affinity” of compounds is given in Makriyannis, et al., US 2007, 0135388 and in Papahatjis, et al. J. Med. Chem. (2007) 4048, the content of each of which is hereby incorporated by reference.

In another test the target is CB2 receptor (UniProt P47936). The experiment in a line: CB2 receptor binding affinity (Ki). The conditions noted are these: read-out: CB2 receptor Ki. The procedure: Some disclosed compounds were tested for CB1 and CB2 receptor binding affinity (Tables 1, 2, 3, 4, 5, 6). As used herein “binding affinity” is represented by the Ki value. The Ki value is the affinity constant and describes the affinity of the compound for the receptor. The lower the Ki value, the higher the affinity of the compound for the receptor. A detailed description of the methods used to test “binding affinity” of compounds is given in Makriyannis, et al., US 2007, 0135388 and in Papahatjis, et al. J. Med. Chem. (2007) 4048, the content of each of which is hereby incorporated by reference.

Read-outs that look alike come from different tables or passages of the source. Bounds are passed on as bounds.

CB1, sequence (P20272 whole entry): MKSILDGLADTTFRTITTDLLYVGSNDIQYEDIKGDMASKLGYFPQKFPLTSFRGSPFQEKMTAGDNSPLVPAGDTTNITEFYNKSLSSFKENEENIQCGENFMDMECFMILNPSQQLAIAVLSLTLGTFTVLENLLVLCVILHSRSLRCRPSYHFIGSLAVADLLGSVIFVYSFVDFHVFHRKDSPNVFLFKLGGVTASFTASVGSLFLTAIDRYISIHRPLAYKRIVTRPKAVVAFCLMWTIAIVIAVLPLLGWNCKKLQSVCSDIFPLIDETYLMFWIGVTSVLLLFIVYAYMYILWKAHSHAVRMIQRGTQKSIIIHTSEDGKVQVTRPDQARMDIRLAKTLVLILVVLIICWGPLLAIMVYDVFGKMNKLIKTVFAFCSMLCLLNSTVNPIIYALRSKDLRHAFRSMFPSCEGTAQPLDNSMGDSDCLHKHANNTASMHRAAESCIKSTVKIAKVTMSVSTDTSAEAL

The Ki is the dissociation constant of the complex between target and ligand, obtained from inhibition or displacement. “2-[(1S,6S)-3-(Hydroxymethyl)-6-(1-methylethenyl)-2-cyclohexen-1-yl]-5-[1-(1,2-cis-hexen-1-yl)-cyclopent-1-yl]resorcinol [Compound 4.5]”: the inhibition constant (Ki) on CB1 (read-out: CB1 receptor Ki) was 29 nM; at CB2 receptor, 2.7 nM.
As to `C=C(C)[C@H]1CCC(C)=C[C@@H]1c1c(O)cc(CCCCC)cc1O` [(+)-CBD, Cannabidiol, reference compound], the Ki on CB2 receptor is over 200 nM.
Turning to `C=C(C)[C@@H]1CCC(C)=C[C@H]1c1c(O)cc(CCCCC)cc1O` [(−)-CBD, Cannabidiol, reference compound], the Ki at CB2 receptor is over 200 nM.
In the case of `C=C(C)[C@H]1CCC(COC(C)=O)=C[C@@H]1c1c(O)cc(C(C)(C)CCCCCC)cc1O` [Compound 3.2, 2-[(1S,6S)-3-(Acetoxymethyl)-6-(1-methylethenyl)-2-cyclohexen-1-yl]-5-(1,1-dimethylheptyl)resorcinol], the figures for the inhibitory constant (Ki) on CB1 and on CB2 receptor were 69 nM and 62 nM, respectively.
For `C=C(C)[C@H]1CCC(COC(C)=O)=C[C@@H]1c1c(O)cc(C2(CCCCCC)CC2)cc1O` [Compound 3.3, 2-[(1S,6S)-3-(Acetoxymethyl)-6-(1-methylethenyl)-2-cyclohexen-1-yl]-5-(1-hexyl-cyclopropyl)resorcinol] the same measures were 88 nM and 105 nM.
For `C=C(C)[C@H]1CCC(COC(C)=O)=C[C@@H]1c1c(O)cc(C2(CCCCCC)CCCC2)cc1O` [Compound 3.4, 2-[(1S,6S)-3-(Acetoxymethyl)-6-(1-methylethenyl)-2-cyclohexen-1-yl]-5-(1-hexyl-1-cyclopentyl)resorcinol] the same measures were 277 nM and 65 nM.
In the case of `C=C(C)[C@H]1CCC(COC(C)=O)=C[C@@H]1c1c(O)cc(C2(/C=C\CCCC)CCCC2)cc1O` [Compound 3.5, 2-[(1S,6S)-3-(Acetoxymethyl)-6-(1-methylethenyl)-2-cyclohexen-1-yl]-5-[1-(1,2-cis-hexen-1-yl)-cyclopent-1-yl]resorcinol], the Ki on CB1 stood at 71 nM; at CB2 receptor it was 12 nM.
Turning to `C=C(C)[C@H]1CCC(COC(C)=O)=C[C@@H]1c1c(O)cc(C2(CCCCCC)SCCS2)cc1O` [Compound 3.6, 2-[(1S,6S)-3-(Acetoxymethyl)-6-(1-methylethenyl)-2-cyclohexen-1-yl]-5-(2-hexyl-1,3-dithiolane-2-yl)resorcinol], the values for the inhibition constant Ki at CB1 (read-out: CB1 receptor Ki) and at CB2 receptor were 326 nM and 97 nM, respectively.
For the compound `C=C(C)[C@H]1CCC(COC(C)=O)=C[C@@H]1c1c(O)cc(C2(CCCCCBr)CCCC2)cc1O` [Compound 3.7, 2-[(1S,6S)-3-(Acetoxymethyl)-6-(1-methylethenyl)-2-cyclohexen-1-yl]-5-[(5-bromopentyl)cyclopentyl)resorcinol], the results for the Ki on CB1 and on CB2 receptor were 51 nM and 25 nM, respectively.
For `C=C(C)[C@H]1CCC(COC(C)=O)=C[C@@H]1c1c(O)cc(C2(CCCCCBr)CCC2)cc1O` [Compound 3.8, 2-[(1S,6S)-3-(Acetoxymethyl)-6-(1-methylethenyl)-2-cyclohexen-1-yl]-5-[(5-bromopentyl)cyclobutyl)resorcinol] the same measures were 50 nM and 35 nM.
For `C=C(C)[C@H]1CCC(COC(C)=O)=C[C@@H]1c1c(O)cc(C23CC4CC(CC(C4)C2)C3)cc1O` [Compound 3.9, 2-[(1S,6S)-3-(Acetoxymethyl)-6-(1-methylethenyl)-2-cyclohexen-1-yl]-5-(1-adamantyl)resorcinol] the same measures were 185 nM and 135 nM.
Regarding `C=C(C)[C@H]1CCC(COC(C)=O)=C[C@@H]1c1c(O)cc(C(C)(C)CCCBr)cc1O` [Compound 3.10, 2-[(1S,6S)-3-(Acetoxymethyl)-6-(1-methylethenyl)-2-cyclohexen-1-yl]-5-(5-bromo-2-methypentan-2-yl)resorcinol], the Ki on CB1 was found to be 620 nM; on CB2 receptor it was 14 nM.
Taken in the same sequence, the figures for `C=C(C)[C@H]1CCC(COC(C)=O)=C[C@@H]1c1c(O)cc(C(C)(C)CCCCBr)cc1O` [Compound 3.11, 2-[(1S,6S)-3-(Acetoxymethyl)-6-(1-methylethenyl)-2-cyclohexen-1-yl]-5-(6-bromo-2-methylhexan-2-yl)resorcinol] were 191 nM and 37 nM.
Take `C=C(C)[C@H]1CCC(COC(C)=O)=C[C@@H]1c1c(O)cc(C(C)(C)CCCCCBr)cc1O` [Compound 3.12, 2-[(1S,6S)-3-(Acetoxymethyl)-6-(1-methylethenyl)-2-cyclohexen-1-yl]-5-(7-bromo-2-methylheptan-2-yl)resorcinol]: the values for the Ki on CB1 and on CB2 receptor were 29 nM and 27 nM, respectively.
For `C=C(C)[C@H]1CCC(COC(C)=O)=C[C@@H]1c1c(O)cc(C2(/C=C\CCCC)CCOCC2)cc1O` [Compound 3.14, 2-[(1S,6S)-3-(Acetoxymethyl)-6-(1-methylethenyl)-2-cyclohexen-1-yl]-5-[1-(1,2-cis-hexen-1-yl)-tetrahydro-2H-pyran-4-yl]resorcinol] the same measures were 376 nM and 38 nM.
Taken in the same sequence, the figures for `C=C(C)[C@H]1CCC(CO)=C[C@@H]1c1c(O)cc(C2(CCCCCBr)CCCC2)cc1O` [Compound 4.7, 2-[(1S,6S)-3-(Hydroxymethyl)-6-(1-methylethenyl)-2-cyclohexen-1-yl]-5-[(5-bromopentyl)cyclopentyl)resorcinol] were 16 nM and 5 nM.
For `C=C(C)[C@H]1CCC(CO)=C[C@@H]1c1c(O)cc(C2(CCCCCBr)CCC2)cc1O` [Compound 4.8, 2-[(1S,6S)-3-(Hydroxymethyl)-6-(1-methylethenyl)-2-cyclohexen-1-yl]-5-[(5-bromopentyl)cyclobutyl)resorcinol] the same measures were 14 nM and 11 nM.
For `C=C(C)[C@H]1CCC(CO)=C[C@@H]1c1c(O)cc(C23CC4CC(CC(C4)C2)C3)cc1O` [Compound 4.9, 2-[(1S,6S)-3-(Hydroxymethyl)-6-(1-methylethenyl)-2-cyclohexen-1-yl]-5-(1-adamantyl)resorcinol], the Ki at CB1 amounted to 449 nM; on CB2 receptor, 49 nM.
Consider `C=C(C)[C@@H]1CCC(COC(C)=O)=C[C@H]1c1c(O)cc(C(C)(C)CCCCCC)cc1O` [Compound 31.2, 2-[(1R,6R)-3-(Acetoxymethyl)-6-(1-methylethenyl)-2-cyclohexen-1-yl]-5-(1,1-dimethylheptyl)resorcinol], for which the values for the Ki at CB1 and at CB2 receptor were 221 nM and 375 nM, respectively.
With `C=C(C)[C@@H]1CCC(COC(C)=O)=C[C@H]1c1c(O)cc(C(C)(C)CCCCCCBr)cc1O` [Compound 31.13, 2-[(1R,6R)-3-(Acetoxymethyl)-6-(1-methylethenyl)-2-cyclohexen-1-yl]-5-(8-bromo-2-methyloct-2-yl)resorcinol], the inhibition constant (Ki) at CB1 came out at 205 nM; on CB2 receptor it was 171 nM.
For `C=C(C)[C@H]1CCC(COC(C)=O)=C[C@@H]1c1c(O)cc(C2(CCCCCC#N)CCC2)cc1O` [Compound 33, 2-[(1S,6S)-3-(Acetoxymethyl)-6-(1-methylethenyl)-2-cyclohexen-1-yl]-5-[(5-cyanopentyl)cyclobutyl)resorcinol] the same measures were 65 nM and 15 nM.
`C=C(C)[C@H]1CCC(CO)=C[C@@H]1c1c(O)cc(C2(CCCCCN=[N+]=[N-])CCC2)cc1O` [Compound 37, 2-[(1S,6S)-3-(Hydroxymethyl)-6-(1-methylethenyl)-2-cyclohexen-1-yl]-5-[(5-azidopentyl)cyclobutyl)resorcinol]: the Ki amounted to 22 nM at CB1 and 7.2 nM at CB2 receptor.
For `CCCCCc1cc(O)c([C@H]2C=C(C)[C@H]3C[C@@H]2C3(C)C)c(O)c1` [Compound 40.1, (+)-2-[(1R,4S,5S)-2,6,6-trimethylbicyclo[3.1.1]hept-2-en-4-yl]-5-pentyl-resorcinol, reference compound] the same measures were 671 nM and 47 nM.
Regarding `CCCCCCC1(c2cc(O)c([C@H]3C=C(C)[C@H]4C[C@@H]3C4(C)C)c(O)c2)CCCC1` [Compound 40.4, (+)-2-[(1R,4S,5S)-2,6,6-trimethylbicylco[3.1.1]hept-2-en-4-yl]-5-(1-hexyl-1-cyclopentyl)resorcinol], the results for the Ki at CB1 and on CB2 receptor were 23 nM and 17 nM, respectively.
For `CCCC/C=C\C1(c2cc(O)c([C@H]3C=C(C)[C@H]4C[C@@H]3C4(C)C)c(O)c2)CCCC1` [Compound 40.5, (+)-2-[(1R,4S,5S)-2,6,6-trimethylbicylco[3.1.1]hept-2-en-4-yl]-5-[1-(1,2-cis-hexen-1-yl)-cyclopent-1-yl]resorcinol], the Ki at CB1 is 13.4 nM; at CB2 receptor, 6.6 nM.
For `CC1=C[C@H](c2c(O)cc(C3(CCCCCBr)CCCC3)cc2O)[C@@H]2C[C@H]1C2(C)C` [Compound 40.7, (+)-2-[(1R,4S,5S)-2,6,6-trimethylbicylco[3.1.1]hept-2-en-4-yl]-5-[(5-bromopentyl)cyclopentyl]resorcinol], the Ki at CB1 is 6.4 nM; at CB2 receptor, 4.7 nM.
Taken in the same sequence, the figures for `CC1=C[C@H](c2c(O)cc(C3(CCCCCBr)CCC3)cc2O)[C@@H]2C[C@H]1C2(C)C` [Compound 40.8, (+)-2-[(1R,4S,5S)-2,6,6-trimethylbicylco[3.1.1]hept-2-en-4-yl]-5-[(5-bromopentyl)cyclobutyl]resorcinol] were 1 nM and 2.1 nM.
